In assay [1] the target is T1, human 5-HT2C receptor (Homo sapiens, UniProt P28335).
T1 construct: expressed in transfected cells; host or cells: CHO (Chinese Hamster Ovary) cells; membrane preparation
T1 sequence (P28335 33-458): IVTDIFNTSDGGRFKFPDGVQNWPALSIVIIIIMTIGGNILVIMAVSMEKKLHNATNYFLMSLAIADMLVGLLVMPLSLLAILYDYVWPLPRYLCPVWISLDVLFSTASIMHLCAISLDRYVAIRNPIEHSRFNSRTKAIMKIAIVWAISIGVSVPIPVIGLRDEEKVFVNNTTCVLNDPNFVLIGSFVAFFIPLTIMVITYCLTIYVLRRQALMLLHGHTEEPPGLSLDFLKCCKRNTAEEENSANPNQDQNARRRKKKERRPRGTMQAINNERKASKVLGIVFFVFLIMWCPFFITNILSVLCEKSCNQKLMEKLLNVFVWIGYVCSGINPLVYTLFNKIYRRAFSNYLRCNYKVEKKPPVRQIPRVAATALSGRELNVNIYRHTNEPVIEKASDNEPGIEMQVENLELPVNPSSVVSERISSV
As to the kind of experiment: 5-HT2C receptor binding, [125I]DOI displacement, membranes of transfected CHO cells.

Assay [2] concerns the target T1, human 5-HT2C receptor. Kind of assay: 5-HT2C receptor-stimulated calcium mobilization (FLIPR) in CHO cells. The format is cell-based. The settings on record: for Emax: CHO, read-out: 5-HT2C Function EMax (%); for EC50: calcium mobilization, CHO cells, read-out: 5-HT2C Function EC50. In general terms: Calcium flux is commonly read through the fluorescence of an indicator in the cells.

Where [3] appears, read: read-out: 5-HT2C Binding Ki avg.

For orientation: Ki means the equilibrium dissociation constant of an inhibitor or competing ligand from its target. The term Emax denotes the maximal effect, on the per cent scale that the assay sets. In general, EC50 refers to the concentration at which the effect is half-maximal. A word on the Kd: it is the equilibrium constant for the complex coming apart.

Read-outs that look alike come from different tables or passages of the source.

`Cc1ccc(-c2cc(F)cc3c2NC(CN)CO3)c(C(F)(F)F)c1` (racemic) [Example 60, 1-{7-fluoro-5-[4-methyl-2-(trifluoromethyl)phenyl]-3,4-dihydro-2H-1,4-benzoxazin-3-yl}methanamine]: at human 5-HT2C receptor [1] (setting [3]), the Ki turned out to be 0.0651 µM.

Regarding `COc1ccc(-c2cccc3c2OC(CN)CN3C)c(C)c1` (racemic) [Example 5, 1-[8-(4-Methoxy-2-methylphenyl)-4-methyl-3,4-dihydro-2H-1,4-benzoxazin-2-yl]methanamine], the Ki at human 5-HT2C receptor [1] (setting [3]) is 0.0104 µM. Further, on human 5-HT2C receptor [2], the maximal effect (Emax) came to 80% and the concentration giving a half-maximal response (EC50) was found to be 0.02 µM.

`Cc1cc(Cl)ccc1-c1cccc2c1O[C@@H](CN)CN2` [Example 48, 1-[(2S)-8-(4-chloro-2-methylphenyl)-3,4-dihydro-2H-1,4-benzoxazin-2-yl]methanamine]: on human 5-HT2C receptor [1] (setting [3]), the inhibition constant Ki turned out to be 0.0993 µM.

As for `CN1CC(CN)Oc2c(-c3ccc(Cl)cc3Cl)cccc21` (racemic) [Example 3, 1-[8-(2,4-Dichlorophenyl)-4-methyl-3,4-dihydro-2H-1,4-benzoxazin-2-yl]methanamine], the Ki at human 5-HT2C receptor [1] (setting [3]) was 0.0131 µM. Also, on human 5-HT2C receptor [2], the Emax worked out at 70% and the EC50 is 0.122 µM.

Turning to `NC[C@@H]1CNc2cccc(-c3ccccc3C(F)(F)F)c2O1` [Example 41, 1-{(2R)-8-[2-(trifluoromethyl)phenyl]-3,4-dihydro-2H-1,4-benzoxazin-2-yl}methanamine], the Ki on human 5-HT2C receptor [1] (setting [3]) was 0.0166 µM. Also, on human 5-HT2C receptor [2], the maximum response (Emax) came to 62% and the EC50 was found to be 0.0105 µM.

As to `COc1ccc(-c2cc(Cl)cc3c2NC(CN)CO3)cc1` (racemic) [Example 26, 1-[7-Chloro-5-(4-methoxyphenyl)-3,4-dihydro-2H-1,4-benzoxazin-3-yl]methanamine], the Ki on human 5-HT2C receptor [1] (setting [3]) was 0.158 µM.

As to `NC[C@H]1CNc2cccc(-c3ccccc3Cl)c2O1` [Example 39, 1-[(2S)-8-(2-chlorophenyl)-3,4-dihydro-2H-1,4-benzoxazin-2-yl]methanamine], the Ki on human 5-HT2C receptor [1] (setting [3]) amounted to 0.0148 µM. Besides, on human 5-HT2C receptor [2], the Emax came out at 60% and the EC50 turned out to be 0.00687 µM.

For the compound `NCC1COc2cc(F)cc(-c3ccccc3Cl)c2N1` (racemic) [Example 57, 1-[5-(2-chlorophenyl)-7-fluoro-3,4-dihydro-2H-1,4-benzoxazin-3-yl]methanamine], the Ki on human 5-HT2C receptor [1] (setting [3]) was determined as 0.155 µM.

As for `COc1ccc(-c2cccc3c2O[C@@H](CN)CN3)cc1` [Example 51, 1-[(2S)-8-(4-methoxyphenyl)-3,4-dihydro-2H-1,4-benzoxazin-2-yl]methanamine], at human 5-HT2C receptor [1] (setting [3]), the Ki came out at 0.136 µM.

Regarding `COc1ccc(-c2cccc3c2O[C@H](CN)CN3)c(Cl)c1` [Example 46, 1-[(2R)-8-(2-chloro-4-methoxyphenyl)-3,4-dihydro-2H-1,4-benzoxazin-2-yl]methanamine], on human 5-HT2C receptor [1] (setting [3]), the Ki came to 0.131 µM.

Turning to `NCC1COc2cc(Cl)cc(-c3ccccc3)c2N1` (racemic) [Example 29, 1-(7-chloro-5-phenyl-3,4-dihydro-2H-1,4-benzoxazin-3-yl)methanamine], the Ki at human 5-HT2C receptor [1] (setting [3]) worked out at 0.421 µM.

Regarding `NC[C@H]1CNc2cccc(-c3ccccc3F)c2O1` [Example 49, 1-[(2S)-8-(2-fluorophenyl)-3,4-dihydro-2H-1,4-benzoxazin-2-yl]methanamine], the Ki at human 5-HT2C receptor [1] (setting [3]) is 0.143 µM.

As to `COc1ccc(-c2cc(Cl)cc3c2N(C)C(CN)CO3)c(C)c1` (racemic) [Example 28, 1-[7-chloro-5-(4-methoxy-2-methylphenyl)-4-methyl-3,4-dihydro-2H-1,4-benzoxazin-3-yl]methanamine], the Ki on human 5-HT2C receptor [1] (setting [3]) worked out at 1.12 µM.

For the compound `NCC1COc2cc(Cl)cc(-c3ccccc3C(F)(F)F)c2N1` (racemic) [Example 25, 1-{7-Chloro-5-[2-(trifluoromethyl)phenyl]-3,4-dihydro-2H-1,4-benzoxazin-3-yl}methanamine], on human 5-HT2C receptor [1] (setting [3]), the Ki was determined as 0.0682 µM.

Consider `NCC1COc2cc(F)cc(-c3cccc(Cl)c3)c2N1` (racemic) [Example 65, 1-[5-(3-chlorophenyl)-7-fluoro-3,4-dihydro-2H-1,4-benzoxazin-3-yl]methanamine], for which the inhibition constant (Ki) at human 5-HT2C receptor [1] (setting [3]) was determined as 0.497 µM.

Take `Cc1ccccc1-c1cc(Cl)cc2c1NC(CN)CO2` (racemic) [Example 30, 1-[7-chloro-5-(2-methylphenyl)-3,4-dihydro-2H-1,4-benzoxazin-3-yl]methanamine]: the inhibitory constant (Ki) at human 5-HT2C receptor [1] (setting [3]) is 0.155 µM.

As to `Cc1cc(Cl)ccc1-c1cc(F)cc2c1NC(CN)CO2` (racemic) [Example 63, 1-[5-(4-chloro-2-methylphenyl)-7-fluoro-3,4-dihydro-2H-1,4-benzoxazin-3-yl]methanamine], the Ki on human 5-HT2C receptor [1] (setting [3]) was 0.227 µM.

`COc1ccc(-c2cccc3c2O[C@H](CN)CN3)c(C)c1` [Example 44, 1-[(2R)-8-(4-methoxy-2-methylphenyl)-3,4-dihydro-2H-1,4-benzoxazin-2-yl]methanamine]: the Ki on human 5-HT2C receptor [1] (setting [3]) was 0.143 µM.

In the case of `CCN1CC(CN)Oc2c(-c3ccccc3Cl)cccc21` (racemic) [Example 19, 1-[8-(2-Chlorophenyl)-4-ethyl-3,4-dihydro-2H-1,4-benzoxazin-2-yl]methanamine], the Ki at human 5-HT2C receptor [1] (setting [3]) came out at 0.0805 µM.

For `COc1ccc(-c2cc(F)cc3c2NC(CN)CO3)c(C)c1` (racemic) [Example 56, 1-[7-fluoro-5-(4-methoxy-2-methylphenyl)-3,4-dihydro-2H-1,4-benzoxazin-3-yl]methanamine], the Ki at human 5-HT2C receptor [1] (setting [3]) stood at 0.16 µM.

With `Cc1cc(Cl)ccc1-c1cccc2c1O[C@H](CN)CN2` [Example 42, 1-[(2R)-8-(4-chloro-2-methylphenyl)-3,4-dihydro-2H-1,4-benzoxazin-2-yl]methanamine], on human 5-HT2C receptor [1] (setting [3]), the Ki came out at 0.529 µM.

Consider `NCC1COc2cc(Cl)cc(-c3ccccc3F)c2N1` (racemic) [Example 33, 1-[7-chloro-5-(2-fluorophenyl)-3,4-dihydro-2H-1,4-benzoxazin-3-yl]methanamine], for which the Ki at human 5-HT2C receptor [1] (setting [3]) is 0.152 µM.

With `COc1ccc(-c2cccc3c2O[C@H](CN)CN3)cc1` [Example 45, 1-[(2R)-8-(4-methoxyphenyl)-3,4-dihydro-2H-1,4-benzoxazin-2-yl]methanamine], at human 5-HT2C receptor [1] (@1 μM), the “5-HT2C Binding, % @1 μM” value turned out to be 18% @1 μM.

As to `COc1ccccc1-c1cc(Cl)cc2c1NC(CN)CO2` (racemic) [Example 34, 1-[7-chloro-5-(2-methoxyphenyl)-3,4-dihydro-2H-1,4-benzoxazin-3-yl]methanamine], the Ki on human 5-HT2C receptor [1] (setting [3]) is 0.749 µM.

As to `NCC1COc2cc(Cl)cc(-c3ccc(Cl)cc3C(F)(F)F)c2N1` (racemic) [Example 37, 1-{7-chloro-5-[4-chloro-2-(trifluoromethyl)phenyl]-3,4-dihydro-2H-1,4-benzoxazin-3-yl}methanamine], the Ki at human 5-HT2C receptor [1] (setting [3]) was 0.166 µM.

On to `COc1ccccc1-c1cc(F)cc2c1NC(CN)CO2` (racemic) [Example 64, 1-[7-fluoro-5-(2-methoxyphenyl)-3,4-dihydro-2H-1,4-benzoxazin-3-yl]methanamine], for which, at human 5-HT2C receptor [1] (setting [3]), the inhibitory constant (Ki) was 0.291 µM.

On to `NC[C@@H]1CNc2cccc(-c3ccccc3F)c2O1` [Example 43, 1-[(2R)-8-(2-fluorophenyl)-3,4-dihydro-2H-1,4-benzoxazin-2-yl]methanamine], for which, at human 5-HT2C receptor [1] (setting [3]), the Ki came to 0.0967 µM.

Take `NCC1COc2cc(Cl)cc(-c3ccc(C(F)(F)F)cc3C(F)(F)F)c2N1` (racemic) [Example 38, 1-{5-[2,4-bis(trifluoromethyl)phenyl]-7-chloro-3,4-dihydro-2H-1,4-benzoxazin-3-yl}methanamine]: the Ki on human 5-HT2C receptor [1] (setting [3]) came to 0.287 µM.

Regarding `COc1cc(CC(C)N)c(OC)cc1I` (stereo not drawn) [[^125I] DOI, reference compound], the Kd on human 5-HT2C receptor [1] (saturation binding with increasing concentrations of [125I] DOI, read-out: dissociation constant, KD) came out at 0.0004 µM.

For the compound `Cc1cc(Cl)ccc1-c1cc(Cl)cc2c1NC(CN)CO2` (racemic) [Example 35, 1-[7-chloro-5-(4-chloro-2-methylphenyl)-3,4-dihydro-2H-1,4-benzoxazin-3-yl]methanamine], the Ki on human 5-HT2C receptor [1] (setting [3]) was 0.173 µM.

On to `CN1CC(CN)Oc2c(-c3cccc(Cl)c3)cccc21` (racemic) [Example 66, 1-[8-(3-chlorophenyl)-4-methyl-3,4-dihydro-2H-1,4-benzoxazin-2-yl]methanamine], for which, at human 5-HT2C receptor [1] (setting [3]), the inhibition constant (Ki) turned out to be 0.258 µM.

As to `CSc1ccc2c(c1)C(N1CCN(C)CC1)Cc1ccccc1S2` (stereo not drawn) [Methiothepin, reference compound], the Ki on human 5-HT2C receptor [1] (reference compounds, value (95% confidence interval), [125I]DOI binding, read-out: Ki) came to 0.0046 µM.

Consider `CCCN1CC(CN)Oc2c(-c3ccccc3Cl)cccc21` (racemic) [Example 21, 1-[8-(2-Chlorophenyl)-4-propyl-3,4-dihydro-2H-1,4-benzoxazin-2-yl]methanamine], for which, at human 5-HT2C receptor [1] (setting [3]), the Ki was found to be 0.064 µM.

Consider `COc1ccc(-c2cc(F)cc3c2NC(CN)CO3)cc1` (racemic) [Example 61, 1-[7-fluoro-5-(4-methoxyphenyl)-3,4-dihydro-2H-1,4-benzoxazin-3-yl]methanamine], for which, on human 5-HT2C receptor [1] (setting [3]), the Ki came to 0.38 µM.

As to `CN1CC(CN)Oc2c(-c3ccccc3)cccc21` (racemic) [Example 9, 1-(4-Methyl-8-phenyl-3,4-dihydro-2H-1,4-benzoxazin-2-yl)methanamine], the Ki at human 5-HT2C receptor [1] (setting [3]) came to 0.161 µM.

As for `Cc1ccccc1-c1cc(F)cc2c1NC(CN)CO2` (racemic) [Example 58, 1-[7-fluoro-5-(2-methylphenyl)-3,4-dihydro-2H-1,4-benzoxazin-3-yl]methanamine], the Ki on human 5-HT2C receptor [1] (setting [3]) worked out at 0.155 µM.

As to `NCC1COc2cc(F)cc(-c3ccccc3F)c2N1` (racemic) [Example 62, 1-[7-fluoro-5-(2-fluorophenyl)-3,4-dihydro-2H-1,4-benzoxazin-3-yl]methanamine], on human 5-HT2C receptor [1] (setting [3]), the Ki amounted to 0.794 µM.

The record behind these values is patent publication US20100035871A1, “BENZOXAZINE DERIVATIVES AND USES THEREOF” (priority 2006, published 2010).
